Laboratory results reported in patent publication US9079905B2, “Compounds for the treatment of CNS disorders” (Boehringer Ingelheim International GmbH, priority 2008, dated 2015).

Target: T1, human PDE9A2 (Homo sapiens, UniProt O76083)
T1 construct: made in house; host or cells: Sf9 insect cells (infected; crude lysate used as enzyme source)
Assay: PDE9A2 enzymatic activity assay (scintillation proximity assay)
Assay type: biochemical
Details: for IC50: specific IC50 value is within the given range
Method: The PDE9A2 enzymatic activity assay was run as scintillation proximity assay (SPA), in general according to the protocol of the manufacturer (Amersham Biosciences, product number: TRKQ 7100).
As enzyme source, lysate (PBS with 1% Triton X-100 supplemented with protease inhibitors, cell debris removed by centrifugation at 13.000 rpm for 30 min) of SF 9 cell expressing the human PDE9A2 was used. The total protein amount included in the assay varied upon infection and production efficacy of the SF9 cells and lay in the range of 0.1-100 ng.
In general, the assay conditions were as follows: • total assay volume: 40 microliter • protein amount: 0.1-50 ng • substrate concentration (cGMP): 20 nanomolar; ˜1 mCi/1 • incubation time: 60 min at room temperature • final DMSO concentration: 0.2-1
The assays were run in 384-well format. The test reagents as well as the enzyme and the substrate were diluted in assay buffer. The assay buffer contained 50 mM Tris, 8.3 mM MgCl2, 1.7 mM EGTA, 0.1% BSA, 0.05% Tween 20; the pH of assay buffer was adjusted to 7.5. The reaction was stopped by applying a PDE9 specific inhibitor (e.g. compounds according to WO04099210 or WO04099211) in excess.
The activity of the positive control (minus the negative control=background) is set to 100% and activity in the presence of test compound is expressed relative to these 100%. Within this setting, an inhibition above 100% might be possible due to the nature of the variation of the positive control within the assay. In the following inhibition of PDE 9A2 is presented for a concentration at 10 μM, if not indicated otherwise.
IC50 can be calculated with GraphPadPrism or other suited software setting the positive control as 100 and the negative control as 0. For calculation of IC50 dilutions of the test compounds (substrates) are to be selected and tested following the aforementioned protocol.

[1] = at 10 μM, read-out: % Inhibition of PDE 9A2

T1 sequence (O76083 1-533 isoform O76083-2): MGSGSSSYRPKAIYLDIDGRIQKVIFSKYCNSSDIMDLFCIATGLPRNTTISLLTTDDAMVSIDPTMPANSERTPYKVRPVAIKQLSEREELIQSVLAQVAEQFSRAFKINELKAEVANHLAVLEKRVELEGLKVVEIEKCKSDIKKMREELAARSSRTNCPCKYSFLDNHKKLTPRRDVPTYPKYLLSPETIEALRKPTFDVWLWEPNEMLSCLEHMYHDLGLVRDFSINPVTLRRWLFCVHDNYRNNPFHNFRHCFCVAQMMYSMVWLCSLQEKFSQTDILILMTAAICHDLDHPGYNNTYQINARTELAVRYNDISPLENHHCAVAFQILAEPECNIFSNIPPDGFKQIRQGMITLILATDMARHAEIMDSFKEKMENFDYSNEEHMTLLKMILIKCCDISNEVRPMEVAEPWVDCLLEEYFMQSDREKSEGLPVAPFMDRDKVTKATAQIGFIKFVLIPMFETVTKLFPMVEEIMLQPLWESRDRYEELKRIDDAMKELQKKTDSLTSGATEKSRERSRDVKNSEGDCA

SMILES: Cn1cc(-c2ccc(F)cc2Cc2nc3c(cnn3C3CCC(F)(F)CC3)c(=O)[nH]2)cn1 [Example 72-3]
- inhibition at 10 µM [1]: 98%
- IC50: 1 to 100 nM

SMILES: O=c1[nH]c(Cc2ccccc2-c2cncnc2)nc2c1cnn2C1CCC(F)(F)CC1 [Example 76]
- inhibition at 10 µM [1]: 99%
- IC50: 1 to 100 nM

SMILES: CCC(Cc1nc2c(cnn2C2CCC(F)(F)CC2)c(=O)[nH]1)C(F)(F)F (racemic) [Example 27]
- inhibition at 10 µM [1]: 104%
- IC50: 1 to 100 nM

SMILES: O=c1[nH]c(Cc2cc(F)ccc2-c2cncc(F)c2)nc2c1cnn2C1CCC(F)(F)CC1 [Example 72-9]
- inhibition at 10 µM [1]: 100%
- IC50: 1 to 100 nM

SMILES: O=c1[nH]c(Cc2ccccc2CCCN2CCOCC2)nc2c1cnn2C1CCC(F)(F)CC1 [Example 78]
- inhibition at 10 µM [1]: 97%
- IC50: 1 to 100 nM

SMILES: COc1ncccc1-c1ccc(F)cc1Cc1nc2c(cnn2C2CCC(F)(F)CC2)c(=O)[nH]1 [Example 72-8]
- inhibition at 10 µM [1]: 98%
- IC50: 1 to 100 nM

SMILES: Cc1nc(-c2ccccc2Cc2nc3c(cnn3C3CCC(F)(F)CC3)c(=O)[nH]2)no1 [Example 97]
- inhibition at 10 µM [1]: 100%
- IC50: 1 to 100 nM

SMILES: O=c1[nH]c(C(F)c2ccccc2Br)nc2c1cnn2C1CCC(F)(F)CC1 (racemic) [Example 48-2]
- inhibition at 10 µM [1]: 92%
- IC50: 101 to 1500 nM

SMILES: O=c1[nH]c(Cc2ccccc2C2CC2)nc2c1cnn2C1CCC(F)(F)CC1 [Example 103]
- inhibition at 3.3 µM (at 3.3 μM, read-out: % Inhibition of PDE 9A2): 96%
- IC50: 1 to 100 nM

SMILES: O=c1[nH]c(Cc2cc(F)ccc2-c2ccnc(F)c2)nc2c1cnn2C1CCC(F)(F)CC1 [Example 72-4]
- inhibition at 10 µM [1]: 101%
- IC50: 1 to 100 nM

SMILES: CN(C)C(=O)Cc1ccccc1Cc1nc2c(cnn2C2CCC(F)(F)CC2)c(=O)[nH]1 [Example 79]
- inhibition at 10 µM [1]: 95%
- IC50: 101 to 1500 nM

SMILES: O=c1[nH]c(Cc2cc(F)ccc2-c2ccccn2)nc2c1cnn2C1CCC(F)(F)CC1 [Example 90]
- inhibition at 10 µM [1]: 97%
- IC50: 1 to 100 nM

SMILES: COc1ccc(-c2cc(F)ccc2Cc2nc3c(cnn3C3CCC(F)(F)CC3)c(=O)[nH]2)cn1 [Example 69]
- inhibition at 10 µM [1]: 97%
- IC50: 101 to 1500 nM

SMILES: COc1ccc(-c2ccc(F)cc2Cc2nc3c(cnn3C3CCC(F)(F)CC3)c(=O)[nH]2)cn1 [Example 65]
- inhibition at 10 µM [1]: 101%
- IC50: 1 to 100 nM

SMILES: O=c1[nH]c(CC2CCOC2)nc2c1cnn2C1CCC(F)(F)CC1 (centres unmarked) [Example 23]
- inhibition at 10 µM [1]: 100%
- IC50: 101 to 1500 nM

SMILES: COc1ccc(-c2cc(F)ccc2Cc2nc3c(cnn3C3CCC(F)(F)CC3)c(=O)[nH]2)cc1 [Example 68]
- inhibition at 10 µM [1]: 96%
- IC50: 101 to 1500 nM

SMILES: O=c1[nH]c(Cc2ccc(F)cc2-c2cccnc2)nc2c1cnn2C1CCC(F)(F)CC1 [Example 71]
- inhibition at 10 µM [1]: 98%
- IC50: 1 to 100 nM

SMILES: COc1cncc(-c2ccccc2Cc2nc3c(cnn3C3CCC(F)(F)CC3)c(=O)[nH]2)c1 [Example 53]
- inhibition at 10 µM [1]: 100%
- IC50: 1 to 100 nM

SMILES: O=c1[nH]c(CCCC(F)(F)F)nc2c1cnn2C1CCC(F)(F)CC1 [Example 32]
- inhibition at 10 µM [1]: 98%
- IC50: 1 to 100 nM

SMILES: N#Cc1ccc(-c2cc(F)ccc2Cc2nc3c(cnn3C3CCC(F)(F)CC3)c(=O)[nH]2)cn1 [Example 63]
- inhibition at 10 µM [1]: 93%
- IC50: 101 to 1500 nM

SMILES: O=c1[nH]c(Cc2ccccc2-n2cnnc2)nc2c1cnn2C1CCC(F)(F)CC1 [Example 108]
- inhibition at 10 µM [1]: 99%
- IC50: 1 to 100 nM

SMILES: COC1CCCCC1n1ncc2c(=O)[nH]c(Cc3ccccn3)nc21 (racemic) [Example 12]
- inhibition at 10 µM [1]: 83%
- IC50: 101 to 1500 nM

SMILES: COc1ccc(Cc2nc3c(cnn3C3CCC(F)(F)CC3)c(=O)[nH]2)cc1 [Example 26]
- inhibition at 10 µM [1]: 100%
- IC50: 1 to 100 nM

SMILES: O=c1[nH]c(Cc2ccccc2I)nc2c1cnn2C1CCC(F)(F)CC1 [Example 36]
- inhibition at 10 µM [1]: 99%
- IC50: 1 to 100 nM

SMILES: O=c1[nH]c(Cc2cccc(Cl)c2)nc2c1cnn2C1CCC(F)(F)CC1 [Example 5]
- inhibition at 10 µM [1]: 98%
- IC50: 1 to 100 nM

SMILES: O=C(Cc1ccccc1Cc1nc2c(cnn2C2CCC(F)(F)CC2)c(=O)[nH]1)N1CCCCC1 [Example 81]
- inhibition at 10 µM [1]: 95%
- IC50: 101 to 1500 nM

SMILES: COc1ccccc1Cc1nc2c(cnn2C2CCC(F)(F)CC2)c(=O)[nH]1 [Example 48-3]
- inhibition at 10 µM [1]: 95%
- IC50: 1 to 100 nM

SMILES: O=c1[nH]c(Cc2ccc(F)cc2-c2ccncc2)nc2c1cnn2C1CCC(F)(F)CC1 [Example 72]
- inhibition at 10 µM [1]: 97%
- IC50: 101 to 1500 nM

SMILES: CC(C)(C)OC(=O)NC1CCCC(n2ncc3c(=O)[nH]c(CC4CCCC4)nc32)C1 (mixture of isomers) [Example 16]
- inhibition at 10 µM [1]: 104%
- IC50: 1 to 100 nM

SMILES: Cn1nccc1-c1ccc(F)cc1Cc1nc2c(cnn2C2CCC(F)(F)CC2)c(=O)[nH]1 [Example 72-2]
- inhibition at 10 µM [1]: 98%
- IC50: 1 to 100 nM

SMILES: O=c1[nH]c(Cc2cc(F)cc(F)c2)nc2c1cnn2C1CCC(F)(F)CC1 [Example 7]
- inhibition at 10 µM [1]: 96%
- IC50: 1 to 100 nM

SMILES: O=c1[nH]c(CC2CCCC2)nc2c1cnn2C1CCC(F)(F)CC1 [Example 20]
- inhibition at 10 µM [1]: 104%
- IC50: 1 to 100 nM

SMILES: CC(Cc1nc2c(cnn2C2CCC(F)(F)CC2)c(=O)[nH]1)C(F)(F)F (racemic) [Example 30]
- inhibition at 10 µM [1]: 98%
- IC50: 1 to 100 nM

SMILES: O=c1[nH]c(CC2CCCC2)nc2c1cnn2C1CCC(F)CC1 (centres unmarked) [Example 113]
- inhibition at 10 µM [1]: 98%
- IC50: 1 to 100 nM

SMILES: CCCCc1nc2c(cnn2C2CCC(F)(F)CC2)c(=O)[nH]1 [Example 8]
- inhibition at 10 µM [1]: 98%
- IC50: 1 to 100 nM

SMILES: O=c1[nH]c(Cc2ncccc2C2CC2)nc2c1cnn2C1CCC(F)(F)CC1 [Example 105]
- inhibition at 10 µM [1]: 97%
- IC50: 101 to 1500 nM

SMILES: O=c1[nH]c(Cc2ccccn2)nc2c1cnn2C1CCC(F)(F)CC1 [Example 1]
- inhibition at 10 µM [1]: 98%
- IC50: 1 to 100 nM

SMILES: O=c1[nH]c(Cc2cc(F)ccc2-c2ccncc2)nc2c1cnn2C1CCC(F)(F)CC1 [Example 70]
- inhibition at 10 µM [1]: 100%
- IC50: 1 to 100 nM

SMILES: O=c1[nH]c(CC2CC2)nc2c1cnn2C1CCCC(c2ccccc2)C1 (mixture of isomers) [Example 15]
- inhibition at 10 µM [1]: 93%
- IC50: 101 to 1500 nM

SMILES: CN1CCN(C(=O)Cc2ccccc2Cc2nc3c(cnn3C3CCC(F)(F)CC3)c(=O)[nH]2)CC1 [Example 80]
- inhibition at 10 µM [1]: 91%
- IC50: 101 to 1500 nM

SMILES: N#Cc1ccc(-c2ccccc2Cc2nc3c(cnn3C3CCC(F)(F)CC3)c(=O)[nH]2)cn1 [Example 54]
- inhibition at 10 µM [1]: 102%
- IC50: 1 to 100 nM

SMILES: CCOC(=O)NC1CCCC(n2ncc3c(=O)[nH]c(CC4CCCC4)nc32)C1 (mixture of isomers) [Example 17]
- inhibition at 10 µM [1]: 103%
- IC50: 1 to 100 nM

SMILES: CC1(C)CC(Cc2nc3c(cnn3C3CCC(F)(F)CC3)c(=O)[nH]2)C(=O)O1 (racemic) [Example 28]
- inhibition at 10 µM [1]: 91%
- IC50: 101 to 1500 nM

SMILES: Cn1cc(-c2ccccc2C(F)c2nc3c(cnn3C3CCC(F)(F)CC3)c(=O)[nH]2)cn1 (racemic) [Example 72-11]
- inhibition at 10 µM [1]: 84%
- IC50: 1 to 100 nM

SMILES: O=c1[nH]c(Cc2ccccc2-c2ccccn2)nc2c1cnn2C1CCC(F)(F)CC1 [Example 91]
- inhibition at 10 µM [1]: 95%
- IC50: 1 to 100 nM

SMILES: COc1cc(-c2ccc(F)cc2Cc2nc3c(cnn3C3CCC(F)(F)CC3)c(=O)[nH]2)ccn1 [Example 64]
- inhibition at 10 µM [1]: 97%
- IC50: 1 to 100 nM

SMILES: O=c1[nH]c(Cc2cc(F)ccc2Br)nc2c1cnn2C1CCC(F)(F)CC1 [Example 45]
- inhibition at 10 µM [1]: 97%
- IC50: 1 to 100 nM

SMILES: CC1(C)CC(n2ncc3c(=O)[nH]c(CC4CC4)nc32)CC(C)(C)C1 [Example 13]
- inhibition at 10 µM [1]: 98%
- IC50: 101 to 1500 nM

SMILES: CCC(Cc1nc2c(cnn2C2CCC(F)(F)CC2)c(=O)[nH]1)C(F)(F)F (single isomer, unassigned) [Example 102]
- % Inhibition of PDE 9A2 (at 10 μM): 96%
- IC50: 101 to 1500 nM

SMILES: C[C@@H]1CC(Cc2nc3c(cnn3C3CCC(F)(F)CC3)c(=O)[nH]2)C(=O)N1C (mixture of isomers) [Example 48-6]
- inhibition at 10 µM [1]: 87%
- IC50: 101 to 1500 nM

SMILES: NC(=O)c1ccc(-c2ccc(F)cc2Cc2nc3c(cnn3C3CCC(F)(F)CC3)c(=O)[nH]2)cn1 [Example 61]
- inhibition at 10 µM [1]: 99%
- IC50: 1 to 100 nM

SMILES: O=c1[nH]c(Cc2ccccc2)nc2c1cnn2C1CCC(F)(F)CC1 [Example 4]
- inhibition at 10 µM [1]: 100%
- IC50: 1 to 100 nM

SMILES: NC1CCCC(n2ncc3c(=O)[nH]c(CC4CCCC4)nc32)C1 (racemic) [Example 86]
- inhibition at 10 µM [1]: 77%
- IC50: 101 to 1500 nM

SMILES: O=c1[nH]c(CC2CCC2)nc2c1cnn2C1CCC(F)CC1 (centres unmarked) [Example 111]
- inhibition at 10 µM [1]: 74%
- IC50: 1 to 100 nM

SMILES: O=c1[nH]c(Cc2ccccn2)nc2c1cnn2C1CCCC(c2ccccc2)C1 (mixture of isomers) [Example 14]
- inhibition at 10 µM [1]: 94%
- IC50: 101 to 1500 nM
